# In patent US20240050392A1, “COMPOSITIONS AND METHODS FOR IMPROVED TREATMENT OF PLATINUM-BASED CHEMOTHERAPEUTIC RESISTANT TUMORS” (THE REGENTS OF THE UNIVERSITY OF THE COLORADO, A BODY …, priority 2021, published 2024):
# Tests used:
# NPEPPS mRNA = experiment: Cisplatin induced NPEPPS mRNA expression (RT-qPCR); assay type: cell-based, human
# Experimental: Cisplatin induced NPEPPS mRNA expression. Total RNA was isolated from cells using Trizol (ThermoFisher) and/or phenol-chloroform based extraction methods. Residual DNA was digested with DNAse I (Life technologies). cDNA synthesis was performed using Superscript II Reverse Transcriptase kit (Life technologies) using random primers. RT-qPCR reactions were performed on a CFX Connect Real-Time PCR Detection System thermocycler (Bio-Rad) using TaqMan gene expression assays for NPEPPS and HMBS as a housekeeping gene (ThermoFisher) in combination with SensiFAST Probe No-ROX Kit (Bioline, Toronto, Canada). Expression data was calculated using 2^−ΔΔCt. All cell line experiments were performed in triplicate from independently grown cells. Comparisons at the indicated dose of cisplatin were made to the control treatment (0 μM cisplatin) using a t-test.
# [1] = cited from earlier work
# [2] = molecular target: T1, volume regulated anion channel (VRAC), LRRC8A and LRRC8D (Homo sapiens, UniProt Q7L1W4+Q8IWT6); details: as reported; cited from earlier work
# T1 sequence (Q8IWT6 1-810): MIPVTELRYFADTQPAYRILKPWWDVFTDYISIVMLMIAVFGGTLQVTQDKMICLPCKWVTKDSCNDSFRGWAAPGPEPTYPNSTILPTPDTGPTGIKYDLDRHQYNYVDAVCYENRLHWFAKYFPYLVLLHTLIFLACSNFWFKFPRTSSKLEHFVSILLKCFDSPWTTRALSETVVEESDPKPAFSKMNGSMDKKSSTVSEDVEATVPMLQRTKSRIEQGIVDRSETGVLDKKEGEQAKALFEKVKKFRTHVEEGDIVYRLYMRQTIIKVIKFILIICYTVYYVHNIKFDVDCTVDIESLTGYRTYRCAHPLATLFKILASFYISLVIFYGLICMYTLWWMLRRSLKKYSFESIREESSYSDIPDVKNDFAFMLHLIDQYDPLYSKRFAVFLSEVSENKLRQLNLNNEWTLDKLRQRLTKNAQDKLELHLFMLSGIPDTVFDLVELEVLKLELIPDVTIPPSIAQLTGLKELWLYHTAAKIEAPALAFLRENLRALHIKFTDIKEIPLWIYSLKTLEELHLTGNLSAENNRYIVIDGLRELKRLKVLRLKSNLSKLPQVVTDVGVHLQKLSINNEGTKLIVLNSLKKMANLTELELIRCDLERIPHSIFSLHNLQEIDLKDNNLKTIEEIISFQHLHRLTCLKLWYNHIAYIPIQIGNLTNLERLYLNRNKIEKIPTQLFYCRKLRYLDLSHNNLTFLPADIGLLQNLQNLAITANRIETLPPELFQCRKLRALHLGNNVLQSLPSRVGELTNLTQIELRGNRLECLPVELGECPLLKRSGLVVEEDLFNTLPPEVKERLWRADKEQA
# T1 sequence (Q7L1W4 1-858): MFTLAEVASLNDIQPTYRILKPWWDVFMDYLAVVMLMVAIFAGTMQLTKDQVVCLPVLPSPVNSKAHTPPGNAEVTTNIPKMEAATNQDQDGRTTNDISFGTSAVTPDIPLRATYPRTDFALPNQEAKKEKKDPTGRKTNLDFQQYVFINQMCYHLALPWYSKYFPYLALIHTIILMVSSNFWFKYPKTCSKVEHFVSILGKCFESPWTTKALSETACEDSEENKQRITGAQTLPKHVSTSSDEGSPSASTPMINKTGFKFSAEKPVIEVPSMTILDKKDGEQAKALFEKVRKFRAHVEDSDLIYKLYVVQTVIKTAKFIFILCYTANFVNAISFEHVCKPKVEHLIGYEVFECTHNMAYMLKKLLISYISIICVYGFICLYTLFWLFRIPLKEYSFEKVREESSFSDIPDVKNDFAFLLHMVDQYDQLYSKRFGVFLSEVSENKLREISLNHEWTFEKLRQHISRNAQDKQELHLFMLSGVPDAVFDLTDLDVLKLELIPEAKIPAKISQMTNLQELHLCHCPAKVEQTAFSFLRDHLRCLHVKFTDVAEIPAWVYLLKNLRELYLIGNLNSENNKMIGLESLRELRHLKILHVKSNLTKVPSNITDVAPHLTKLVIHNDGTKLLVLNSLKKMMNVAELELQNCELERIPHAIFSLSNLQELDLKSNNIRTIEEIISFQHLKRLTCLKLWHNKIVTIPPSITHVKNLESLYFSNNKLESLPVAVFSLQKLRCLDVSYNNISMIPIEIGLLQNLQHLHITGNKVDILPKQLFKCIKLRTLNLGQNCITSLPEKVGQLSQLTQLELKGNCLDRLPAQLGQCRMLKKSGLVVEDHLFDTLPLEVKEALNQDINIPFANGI
smiles,measurement,setting,value
N.N.[Cl][Pt][Cl] [cisplatin],NPEPPS mRNA,NPEPPS mRNA; KU1919-Par and KU1919-GemCis cells after 24 hours of cisplatin treatment,increased
same,NPEPPS induction,NPEPPS mRNA; patient-derived organoids treated with cisplatin,induced NPEPPS in a dose dependent manner
same,maximum concentration of cisplatin in patients,[1],14 µM
same,share of intracellular cisplatin transported through VRAC channels,[2],50-70%
